How the values were obtained:
human TMC4 (hTMC4) = biological target: T1, human TMC4 (hTMC4) (Homo sapiens, UniProt Q7Z404); assay: whole cell patch clamp assay using HEK293T cells expressing hTMC4; type: cell-based; conditions: 100 μM added to vehicle solution (134 mM NaCl), same cells compared
T1 construct: host or cells: HEK293T
T1 sequence (Q7Z404 1-706 isoform Q7Z404-1): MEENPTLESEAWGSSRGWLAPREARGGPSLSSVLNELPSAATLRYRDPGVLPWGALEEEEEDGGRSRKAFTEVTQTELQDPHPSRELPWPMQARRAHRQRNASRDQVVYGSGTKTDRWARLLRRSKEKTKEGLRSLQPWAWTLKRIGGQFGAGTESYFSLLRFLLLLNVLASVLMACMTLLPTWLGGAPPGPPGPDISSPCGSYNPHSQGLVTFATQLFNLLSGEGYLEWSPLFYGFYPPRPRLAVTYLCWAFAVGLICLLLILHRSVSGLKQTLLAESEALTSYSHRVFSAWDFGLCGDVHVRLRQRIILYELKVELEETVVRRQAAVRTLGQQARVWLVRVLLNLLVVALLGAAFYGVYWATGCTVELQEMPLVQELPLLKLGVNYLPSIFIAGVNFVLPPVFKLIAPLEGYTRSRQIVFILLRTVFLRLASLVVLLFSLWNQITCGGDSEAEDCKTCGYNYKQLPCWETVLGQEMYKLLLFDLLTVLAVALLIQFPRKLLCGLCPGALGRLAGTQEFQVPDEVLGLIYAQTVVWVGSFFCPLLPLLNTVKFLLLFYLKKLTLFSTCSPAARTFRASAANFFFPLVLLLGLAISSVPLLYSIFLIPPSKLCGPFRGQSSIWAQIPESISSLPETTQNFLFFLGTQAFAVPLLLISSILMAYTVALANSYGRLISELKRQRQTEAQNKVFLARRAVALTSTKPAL
Description: In order to observe influence of a known salty taste enhancer on TMC4, the whole cell patch clamp assay (whole cell recording) was performed by using HEK293T cells expressing human TMC4 (hTMC4).
The whole cell patch clamp assay was performed in the same manner as in Example 2 except for the following:
1) HEK293T cells expressing human TMC4 (hTMC4) were used; and
2) a 134 mM NaCl solution was used as a vehicle solution, an extracellular fluid obtained by adding 100 μM arginine hydrochloride (Arg-HCl) as a salty taste enhancer to the vehicle solution, and an extracellular fluid (control not enhancing salty taste) obtained by adding 100 μM sucrose or maltose to the vehicle solution were used. A Cl^− current flowing via TMC4 was compared.
As for the hTMC4, a clone of Accession No. BC025323 was purchased from Dharmacon, and inserted between restriction enzyme EcoR1 site and Not1 site of the plasmid pIRES2-AcGFP1 to create an expression construct in the same manner as that for the mTMC4.

mouse TMC4 (mTMC4) = biological target: T2, mouse TMC4 (mTMC4) (Mus musculus, UniProt Q7TQ65); assay: whole cell patch clamp assay using HEK293T cells expressing mTMC4; type: cell-based; conditions: 100 μM added to the 134 mM NaCl buffer, 25° C.
T2 construct: expressed in transfected cells; host or cells: HEK293T
T2 sequence (Q7TQ65 1-694): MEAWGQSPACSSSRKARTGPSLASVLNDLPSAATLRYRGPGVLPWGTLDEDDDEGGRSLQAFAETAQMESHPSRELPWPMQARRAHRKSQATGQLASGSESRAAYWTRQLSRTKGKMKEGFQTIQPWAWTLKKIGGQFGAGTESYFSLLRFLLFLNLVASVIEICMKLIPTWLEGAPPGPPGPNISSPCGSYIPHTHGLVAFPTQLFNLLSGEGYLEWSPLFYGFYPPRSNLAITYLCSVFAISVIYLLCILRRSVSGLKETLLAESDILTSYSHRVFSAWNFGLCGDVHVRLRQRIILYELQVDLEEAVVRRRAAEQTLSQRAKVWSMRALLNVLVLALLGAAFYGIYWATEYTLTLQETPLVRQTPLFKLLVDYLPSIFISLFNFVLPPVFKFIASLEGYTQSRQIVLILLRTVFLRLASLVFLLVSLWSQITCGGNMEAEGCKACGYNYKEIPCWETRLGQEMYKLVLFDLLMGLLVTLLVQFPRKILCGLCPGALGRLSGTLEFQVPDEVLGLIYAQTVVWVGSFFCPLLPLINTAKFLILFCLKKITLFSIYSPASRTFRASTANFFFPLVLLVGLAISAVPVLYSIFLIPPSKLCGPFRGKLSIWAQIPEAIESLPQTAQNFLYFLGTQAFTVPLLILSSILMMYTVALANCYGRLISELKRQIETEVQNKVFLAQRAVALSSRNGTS
Description: In order to check electrophysiological properties of TMC4, a whole cell patch clamp assay (whole cell recording) was performed using HEK293T cells expressing TMC4.
In order to express mouse TMC4 (mTMC4) in HEK293T cells, a plasmid vector pIRES2-AcGFP1 (Clontech Laboratories, Inc.) having a CMV promoter was used. An expression construct in which mTMC4 (sequence of Accession No. NM_181820.2 cloned from cDNA derived from mouse circumvallate papillae epithelium) was inserted between restriction enzyme EcoR1 site and Not1 site of pIRES2-AcGFP1 was transfected at a ratio of 1 μg/35 mm dish. As a transfection reagent, Lipofectamine™ LTX Reagent with PLUS & Reagent™ (Thermo Fisher Scientific K.K.) was used. […]
In the whole cell patch clamp recording using the HEK293T cells, Axopatch 200B (Molecular Devices, LLC.) was used as an amplifier, and digital data was obtained from Digidata 1550 (Axon Instruments, Union City, Calif., USA). The obtained data was analyzed using software pCLAMP 10.2 (Axon Instruments). […]
The measurement was performed with the membrane potential of mTMC4-expressing cells fixed at −60 mV with extracellular fluids successively perfused. A step pulse (400 ms) from −100 mV to +100 mV at intervals of 10 mV was applied to each extracellular fluid to create an I-V curve, and thus, voltage-current characteristics of mTMC4 obtained with different extracellular fluids were measured. […]

| Cl- current flowing via TMC4 (human TMC4 (hTMC4)) | outward Cl- current (mouse TMC4 (mTMC4)) | Structure (SMILES) |
| --- | --- | --- |
| did not change | – | OC[C@H]1O[C@H](O[C@H]2[C@H](O)[C@@H](O)C(O)O[C@@H]2CO)[C@H](O)[C@@H](O)[C@@H]1O (mixture of isomers) [maltose] |
| – | completely disappeared | O=C(O)c1cc([N+](=O)[O-])ccc1NCCCc1ccccc1 [NPPB, 5-Nitro-2-(3-phenylpropylamino) benzoic acid] |
| did not change | – | OC[C@H]1O[C@@](CO)(O[C@H]2O[C@H](CO)[C@@H](O)[C@H](O)[C@H]2O)[C@@H](O)[C@@H]1O [sucrose] |

| Structure (SMILES) | Cl- current flowing via TMC4 (human TMC4 (hTMC4)) | outward Cl- current (mouse TMC4 (mTMC4)) |
| --- | --- | --- |
| Cl.N=C(N)NCCC[C@H](N)C(=O)O [arginine hydrochloride] | increased | – |
